Reference: US9809623B2, “α4β7 peptide monomer and dimer antagonists” (Protagonist Therapeutics, Inc., priority 2014, dated 2017)
Read-outs that look alike come from different tables or passages of the source. Numbered stars: 1 amine (or outer) side, 2 acyl side, 3 side chain; on linkers, the order of the positions; unused ones are H or OH. Bridge positions count the residues as written; N and C are the ends. Square brackets hold non-standard residues; d marks the D form. Peptide text beside a SMILES is read from it. I, II: the chains in the order shown. Phe(4-COOH) = N[C@@H](Cc1ccc(C(=O)O)cc1)C(=O)O; 2Nal = N[C@@H](Cc1ccc2ccccc2c1)C(=O)O; Diglycolyl = O=C(COCC(=O)[*:2])[*:1]; NMeR = CN[C@@H](CCCNC(=N)N)C(=O)O; β3hE = N[C@@H](CCC(=O)O)CC(=O)O; Pen = CC(C)(S)[C@H](N)C(=O)O

What was measured:
[1] = Simulated Intestinal Fluid (SIF) Stability Assay; type: in vitro ADME, porcine; settings: pig, simulated intestinal fluid (SIF) with 1% porcine pancreatin
Outline: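 Intestinal stability: percent peptide remaining over time, by LC-MS/MS peak-area ratio to internal standard, fitted to first-order decay for half-life. Conditions: 22 μM peptide, 1% pancreatin in pH 6.5 blank FASSIF, 37 °C.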

α4β7 = α4β7 (Homo sapiens, UniProt P13612+P26010); assay: α4β7-MAdCAM Cell Adhesion Assay (RPMI 8866 human cells); type: cell-based; design: host or cells: RPMI 8866 human B lymphoblastoid cells
Chain of α4β7 (P13612 34-1032): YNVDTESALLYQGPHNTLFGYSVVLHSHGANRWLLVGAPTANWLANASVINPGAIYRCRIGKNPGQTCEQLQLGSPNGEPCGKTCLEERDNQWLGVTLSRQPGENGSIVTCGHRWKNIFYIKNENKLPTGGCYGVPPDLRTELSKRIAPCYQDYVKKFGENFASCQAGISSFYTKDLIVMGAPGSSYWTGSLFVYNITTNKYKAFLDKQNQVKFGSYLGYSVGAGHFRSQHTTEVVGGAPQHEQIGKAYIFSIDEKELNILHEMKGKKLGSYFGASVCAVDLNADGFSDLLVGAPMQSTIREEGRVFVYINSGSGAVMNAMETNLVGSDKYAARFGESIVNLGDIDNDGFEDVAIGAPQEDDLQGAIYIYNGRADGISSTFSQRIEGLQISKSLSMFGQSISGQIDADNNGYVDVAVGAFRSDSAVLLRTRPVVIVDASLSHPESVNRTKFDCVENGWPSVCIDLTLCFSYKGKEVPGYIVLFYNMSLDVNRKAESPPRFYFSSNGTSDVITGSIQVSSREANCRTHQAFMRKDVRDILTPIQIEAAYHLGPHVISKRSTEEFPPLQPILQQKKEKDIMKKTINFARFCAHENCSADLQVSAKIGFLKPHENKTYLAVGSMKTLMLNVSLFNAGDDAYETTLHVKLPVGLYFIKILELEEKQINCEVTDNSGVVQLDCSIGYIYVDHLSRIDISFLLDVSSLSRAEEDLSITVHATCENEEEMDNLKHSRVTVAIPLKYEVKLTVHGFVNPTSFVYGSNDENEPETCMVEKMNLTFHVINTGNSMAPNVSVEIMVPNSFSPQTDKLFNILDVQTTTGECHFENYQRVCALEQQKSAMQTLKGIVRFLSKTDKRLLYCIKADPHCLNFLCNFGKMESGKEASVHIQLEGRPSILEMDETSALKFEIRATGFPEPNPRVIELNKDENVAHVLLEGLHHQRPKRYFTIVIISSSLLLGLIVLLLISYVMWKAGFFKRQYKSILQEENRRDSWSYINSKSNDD
Chain of α4β7 (P26010 20-798): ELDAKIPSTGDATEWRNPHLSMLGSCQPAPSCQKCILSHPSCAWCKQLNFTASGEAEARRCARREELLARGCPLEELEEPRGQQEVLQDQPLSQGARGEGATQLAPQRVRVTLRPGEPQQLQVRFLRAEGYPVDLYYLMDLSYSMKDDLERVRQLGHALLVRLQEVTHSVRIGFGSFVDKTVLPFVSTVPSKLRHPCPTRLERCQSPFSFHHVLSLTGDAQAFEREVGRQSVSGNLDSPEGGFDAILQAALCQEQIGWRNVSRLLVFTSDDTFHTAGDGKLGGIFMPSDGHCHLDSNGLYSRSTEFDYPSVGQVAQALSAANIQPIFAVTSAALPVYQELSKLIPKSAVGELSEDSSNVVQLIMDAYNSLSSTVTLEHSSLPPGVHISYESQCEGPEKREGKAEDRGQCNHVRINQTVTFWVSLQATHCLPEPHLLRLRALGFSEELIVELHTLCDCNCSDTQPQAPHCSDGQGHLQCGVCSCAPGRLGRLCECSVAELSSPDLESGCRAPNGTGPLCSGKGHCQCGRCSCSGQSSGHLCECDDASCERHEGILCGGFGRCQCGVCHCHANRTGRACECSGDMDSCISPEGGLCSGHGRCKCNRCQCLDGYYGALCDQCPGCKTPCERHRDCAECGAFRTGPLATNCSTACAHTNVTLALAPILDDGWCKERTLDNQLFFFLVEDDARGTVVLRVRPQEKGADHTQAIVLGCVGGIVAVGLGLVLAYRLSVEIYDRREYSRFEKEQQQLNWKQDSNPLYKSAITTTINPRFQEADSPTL
Outline: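 Adhesion read-out: MTT absorbance at 570 nm minus no-cell wells, after three washes. Plates coated with rh MAdCAM-1/Fc received peptide dilutions plus 200,000 RPMI 8866 cells in Mn2+ (1 mM)-supplemented DMEM, 0.1% BSA, HEPES pH 7, incubated 30-45 min, 37 °C.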

α4β1 = target: T1, α4β1 (Homo sapiens, UniProt P05556+P13612, DEL729-798); assay: α4β1-VCAM Competition ELISA; type: binding
T1 construct: purchased R&D Systems 5668-A4
T1 sequence (P13612 34-977 limits assumed, stated change not applied): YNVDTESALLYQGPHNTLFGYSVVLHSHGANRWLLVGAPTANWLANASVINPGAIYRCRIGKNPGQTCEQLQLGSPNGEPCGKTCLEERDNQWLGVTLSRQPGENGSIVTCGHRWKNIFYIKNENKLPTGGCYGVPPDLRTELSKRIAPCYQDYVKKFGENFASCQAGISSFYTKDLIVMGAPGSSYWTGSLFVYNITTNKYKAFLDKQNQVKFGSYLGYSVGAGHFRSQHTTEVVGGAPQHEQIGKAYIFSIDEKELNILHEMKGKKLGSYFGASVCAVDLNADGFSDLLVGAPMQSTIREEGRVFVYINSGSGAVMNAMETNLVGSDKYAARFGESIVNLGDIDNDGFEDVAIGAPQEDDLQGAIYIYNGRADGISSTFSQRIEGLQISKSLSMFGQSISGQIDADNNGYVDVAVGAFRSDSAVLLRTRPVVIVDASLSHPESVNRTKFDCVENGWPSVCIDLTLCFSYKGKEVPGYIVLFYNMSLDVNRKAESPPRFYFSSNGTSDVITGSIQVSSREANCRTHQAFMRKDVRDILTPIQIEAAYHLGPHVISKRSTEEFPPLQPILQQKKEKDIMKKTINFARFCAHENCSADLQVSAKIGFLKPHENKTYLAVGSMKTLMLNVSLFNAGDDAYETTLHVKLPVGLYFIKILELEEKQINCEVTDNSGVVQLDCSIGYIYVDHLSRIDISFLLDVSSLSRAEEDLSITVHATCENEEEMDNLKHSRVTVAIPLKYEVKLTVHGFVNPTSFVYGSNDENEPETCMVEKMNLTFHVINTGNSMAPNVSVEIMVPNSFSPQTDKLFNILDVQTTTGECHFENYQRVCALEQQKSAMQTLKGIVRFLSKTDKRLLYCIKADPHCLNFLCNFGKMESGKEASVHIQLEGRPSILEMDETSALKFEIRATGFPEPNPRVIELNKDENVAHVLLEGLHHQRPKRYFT
T1 sequence (P05556 21-728 limits assumed, stated change not applied): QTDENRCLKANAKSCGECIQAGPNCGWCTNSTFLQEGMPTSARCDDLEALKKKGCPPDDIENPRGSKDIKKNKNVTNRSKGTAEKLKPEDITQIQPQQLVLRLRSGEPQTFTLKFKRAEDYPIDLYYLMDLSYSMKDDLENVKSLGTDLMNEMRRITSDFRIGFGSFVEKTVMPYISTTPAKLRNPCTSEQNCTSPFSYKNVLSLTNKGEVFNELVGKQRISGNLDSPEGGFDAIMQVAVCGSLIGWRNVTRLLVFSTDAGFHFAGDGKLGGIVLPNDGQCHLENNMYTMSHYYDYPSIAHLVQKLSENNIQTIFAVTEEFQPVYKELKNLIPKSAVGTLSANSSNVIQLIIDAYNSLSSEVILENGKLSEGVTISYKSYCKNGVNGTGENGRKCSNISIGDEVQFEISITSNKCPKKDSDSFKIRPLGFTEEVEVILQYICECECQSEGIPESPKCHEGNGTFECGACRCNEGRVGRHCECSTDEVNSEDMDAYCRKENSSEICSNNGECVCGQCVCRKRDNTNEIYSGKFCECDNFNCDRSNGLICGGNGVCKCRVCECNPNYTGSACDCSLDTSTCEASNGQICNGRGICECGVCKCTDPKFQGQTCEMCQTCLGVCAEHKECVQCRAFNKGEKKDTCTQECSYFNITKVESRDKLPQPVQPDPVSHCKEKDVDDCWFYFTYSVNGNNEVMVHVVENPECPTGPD
Outline: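 ELISA plates were coated with VCAM-1 Fc at 400 ng/well. Peptide dilutions (highest final 100 μM) and 60 nM α4β1 were incubated 2 h at 37 °C in pH 7.6 Tris buffer containing 1 mM Mn2+ or Mg2+. Integrin retained on the plate was detected by 9F10 antibody, then HRP secondary, with TMB absorbance at 450 nm.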

[2] = pH 6.5, Table 4-C, t1/2, > means assay stopped at that time, read-out: SIF (porcine) Min
[3] = Table 4-B, read-out: Cell Adhesion α4β7 IC50
[4] = Table 4-B, read-out: ELISA_α4β1 IC50
[5] = pH 6.5, Table 3-B, > means experiment was stopped at that time and half life was not reached, read-out: Stabilty SIF t1/2
[6] = Table 3-B, Potency (α4β7), range classes, read-out: α4β7 cell (Hu) IC50
[7] = Table 3-B, Selectivity (α4β1), range classes, read-out: α4β1 ELISA IC50

SMILES | half-life at 22 μM [1, 2] [h] | IC50 (α4β7; [3]) [nM] | IC50 (α4β1; [4]) [nM] | half-life at 22 μM [1, 5] [h] | half-life at 22 μM ([1]; pH 6.5, Table 3-B, alone or in parentheses after >360, read-out: Stabilty SIF t1/2, in hr (converted)) [h] | IC50 (α4β7; [6]) [nM] | IC50 (α4β1; [7]) [nM]
CC(=O)N[C@@H]1C(=O)N(C)[C@@H](CCCNC(=N)N)C(=O)N[C@@H](CO)C(=O)N[C@@H](CC(=O)O)C(=O)N[C@@H]([C@@H](C)O)C(=O)N[C@@H](CC(C)C)C(=O)N[C@H](C(=O)N[C@@H](Cc2c[nH]c3ccccc23)C(=O)N[C@H](CCC(=O)O)C(=O)N[C@H](CCCCNC(=O)COCC(=O)NCCCC[C@@H](NC(=O)[C@@H](CCC(=O)O)NC(=O)[C@H](Cc2c[nH]c3ccccc23)NC(=O)[C@H]2NC(=O)[C@H](CC(C)C)NC(=O)[C@H]([C@@H](C)O)NC(=O)[C@H](CC(=O)O)NC(=O)[C@H](CO)NC(=O)[C@H](CCCNC(=N)N)N(C)C(=O)[C@@H](NC(C)=O)C(C)(C)SSC2(C)C)C(=O)O)C(=O)O)C(C)(C)SSC1(C)C [compound 216, (Ac-Pen-N-Me-R-S-D-T-L-Pen-W-e-k-OH)2-DIG] (I: Ac-[Pen][NMeR]SDTL[Pen]W[dE][dK]-OH / II: Ac-[Pen][NMeR]SDTL[Pen]W[dE][dK]-OH; disulfide I:1-I:7, II:1-II:7 (inferred); linker I:10-II:10 via Diglycolyl (inferred)) | > 3 | 4.2 | 247 |  |  |  | 
CC(=O)N[C@@H]1C(=O)N(C)[C@@H](CCCNC(=N)N)C(=O)N[C@@H](CO)C(=O)N[C@@H](CC(=O)O)C(=O)N[C@@H]([C@@H](C)O)C(=O)N[C@@H](CC(C)C)C(=O)N[C@H](C(=O)N[C@@H](Cc2ccc(C(=O)O)cc2)C(=O)N[C@@H](CCC(=O)O)CC(=O)N[C@H](CCCCNC(=O)COCC(=O)NCCCC[C@@H](NC(=O)C[C@H](CCC(=O)O)NC(=O)[C@H](Cc2ccc(C(=O)O)cc2)NC(=O)[C@H]2NC(=O)[C@H](CC(C)C)NC(=O)[C@H]([C@@H](C)O)NC(=O)[C@H](CC(=O)O)NC(=O)[C@H](CO)NC(=O)[C@H](CCCNC(=N)N)N(C)C(=O)[C@@H](NC(C)=O)C(C)(C)SSC2(C)C)C(N)=O)C(N)=O)C(C)(C)SSC1(C)C [compound 130] (I: Ac-[Pen][NMeR]SDTL[Pen][Phe(4-COOH)][β3hE][dK]-NH2 / II: Ac-[Pen][NMeR]SDTL[Pen][Phe(4-COOH)][β3hE][dK]-NH2; disulfide I:1-I:7, II:1-II:7; linker I:10-II:10 via Diglycolyl) |  |  |  | > 6 | 16 | < 10 | 100 to 500
CC(=O)N[C@H]1CSSC(C)(C)[C@@H](C(=O)N[C@H](CCCCN)C(N)=O)NC(=O)[C@H](CC(C)C)NC(=O)[C@H]([C@@H](C)O)NC(=O)[C@H](CC(=O)O)NC(=O)[C@H](CO)NC(=O)[C@H](CCCNC(=N)N)N(C)C1=O [compound 202, Ac-C-N-Me-R-S-D-T-L-Pen-k-NH2] (Ac-C[NMeR]SDTL[Pen][dK]-NH2; disulfide 1-7) | > 6 | 11000 | 1620 |  |  |  | 
CC(=O)N[C@@H]1C(=O)N(C)[C@@H](CCCNC(=N)N)C(=O)N[C@@H](CO)C(=O)N[C@@H](CC(=O)O)C(=O)N[C@@H]([C@@H](C)O)C(=O)N[C@@H](CC(C)C)C(=O)N[C@H](C(=O)N[C@@H](Cc2c[nH]c3ccccc23)C(=O)N[C@@H](CCC(=O)O)CC(=O)N[C@H](CCCCNC(=O)COCC(=O)NCCCC[C@@H](NC(=O)C[C@H](CCC(=O)O)NC(=O)[C@H](Cc2c[nH]c3ccccc23)NC(=O)[C@H]2NC(=O)[C@H](CC(C)C)NC(=O)[C@H]([C@@H](C)O)NC(=O)[C@H](CC(=O)O)NC(=O)[C@H](CO)NC(=O)[C@H](CCCNC(=N)N)N(C)C(=O)[C@@H](NC(C)=O)C(C)(C)SSC2(C)C)C(N)=O)C(N)=O)C(C)(C)SSC1(C)C [compound 213, [Ac-Pen-(N-Me-Arg)-Ser-Asp-Thr-Leu-Pen-Trp-(β-homoGlu)-(D-Lys)-NH2]2-DIG] (I: Ac-[Pen][NMeR]SDTL[Pen]W[β3hE][dK]-NH2 / II: Ac-[Pen][NMeR]SDTL[Pen]W[β3hE][dK]-NH2; disulfide I:1-I:7, II:1-II:7; linker I:10-II:10 via Diglycolyl) | > 3 | 12 | 539 |  |  |  | 
CC(=O)N[C@H]1CSSC[C@@H](C(=O)NCC(=O)N[C@@H](CCC(=O)O)C(=O)N[C@@H](CCCCNC(=O)COCC(=O)NCCCC[C@H](NC(=O)[C@H](CCC(=O)O)NC(=O)CNC(=O)[C@@H]2CSSC[C@H](NC(C)=O)C(=O)N(C)[C@@H](CCCNC(=N)N)C(=O)N[C@@H](CO)C(=O)N[C@@H](CC(=O)O)C(=O)N[C@@H]([C@@H](C)O)C(=O)N[C@@H](CC(C)C)C(=O)N2)C(=O)O)C(=O)O)NC(=O)[C@H](CC(C)C)NC(=O)[C@H]([C@@H](C)O)NC(=O)[C@H](CC(=O)O)NC(=O)[C@H](CO)NC(=O)[C@H](CCCNC(=N)N)N(C)C1=O [compound 201, (Ac-C-N-Me-R-S-D-T-L-C-G-E-K-OH)2-DIG] (I: Ac-C[NMeR]SDTLCGEK-OH / II: Ac-C[NMeR]SDTLCGEK-OH; disulfide I:1-I:7, II:1-II:7 (inferred); linker I:10-II:10 via Diglycolyl (inferred)) | 0.3 | 28 | 1240 |  |  |  | 
CC(=O)N[C@@H]1C(=O)N(C)[C@@H](CCCNC(=N)N)C(=O)N[C@@H](CO)C(=O)N[C@@H](CC(=O)O)C(=O)N[C@@H]([C@@H](C)O)C(=O)N[C@@H](CC(C)C)C(=O)N[C@H](C(=O)N[C@@H](Cc2ccc3ccccc3c2)C(=O)N[C@@H](CCC(=O)O)C(=O)N[C@H](CCCCNC(=O)COCC(=O)NCCCC[C@@H](NC(=O)[C@H](CCC(=O)O)NC(=O)[C@H](Cc2ccc3ccccc3c2)NC(=O)[C@H]2NC(=O)[C@H](CC(C)C)NC(=O)[C@H]([C@@H](C)O)NC(=O)[C@H](CC(=O)O)NC(=O)[C@H](CO)NC(=O)[C@H](CCCNC(=N)N)N(C)C(=O)[C@@H](NC(C)=O)C(C)(C)SSC2(C)C)C(N)=O)C(N)=O)C(C)(C)SSC1(C)C [compound 212, (Ac-Pen-N-Me-R-S-D-T-L-Pen-2-Nal-E-k-NH2)2-DIG] (I: Ac-[Pen][NMeR]SDTL[Pen][2Nal]E[dK]-NH2 / II: Ac-[Pen][NMeR]SDTL[Pen][2Nal]E[dK]-NH2; disulfide I:1-I:7, II:1-II:7 (inferred); linker I:10-II:10 via Diglycolyl (inferred)) | 1.5 | 2.5 | 70 |  |  |  | 
CC(=O)N[C@@H]1C(=O)N(C)[C@@H](CCCNC(=N)N)C(=O)N[C@@H](CO)C(=O)N[C@@H](CC(=O)O)C(=O)N[C@@H]([C@@H](C)O)C(=O)N[C@@H](CC(C)C)C(=O)N[C@H](C(=O)N[C@@H](Cc2c[nH]c3ccccc23)C(=O)N[C@H](CCCCNC(=O)COCC(=O)NCCCC[C@@H](NC(=O)[C@H](Cc2c[nH]c3ccccc23)NC(=O)[C@H]2NC(=O)[C@H](CC(C)C)NC(=O)[C@H]([C@@H](C)O)NC(=O)[C@H](CC(=O)O)NC(=O)[C@H](CO)NC(=O)[C@H](CCCNC(=N)N)N(C)C(=O)[C@@H](NC(C)=O)C(C)(C)SSC2(C)C)C(N)=O)C(N)=O)C(C)(C)SSC1(C)C [compound 209, (Ac-Pen-N-Me-R-S-D-T-L-Pen-W-k-NH2)2-DIG] (I: Ac-[Pen][NMeR]SDTL[Pen]W[dK]-NH2 / II: Ac-[Pen][NMeR]SDTL[Pen]W[dK]-NH2; disulfide I:1-I:7, II:1-II:7 (inferred); linker I:9-II:9 via Diglycolyl (inferred)) | > 3 | 24 | 368 |  |  |  | 
CC(=O)N[C@@H]1C(=O)N(C)[C@@H](CCCNC(=N)N)C(=O)N[C@@H](CO)C(=O)N[C@@H](CC(=O)O)C(=O)N[C@@H]([C@@H](C)O)C(=O)N[C@@H](CC(C)C)C(=O)N[C@H](C(=O)N[C@@H](Cc2c[nH]c3ccccc23)C(=O)N[C@@H](CCC(=O)O)C(=O)N[C@H](CCCCNC(=O)COCC(=O)NCCCC[C@@H](NC(=O)[C@H](CCC(=O)O)NC(=O)[C@H](Cc2c[nH]c3ccccc23)NC(=O)[C@H]2NC(=O)[C@H](CC(C)C)NC(=O)[C@H]([C@@H](C)O)NC(=O)[C@H](CC(=O)O)NC(=O)[C@H](CO)NC(=O)[C@H](CCCNC(=N)N)N(C)C(=O)[C@@H](NC(C)=O)C(C)(C)SSC2(C)C)C(N)=O)C(N)=O)C(C)(C)SSC1(C)C [compound 67] (I: Ac-[Pen][NMeR]SDTL[Pen]WE[dK]-NH2 / II: Ac-[Pen][NMeR]SDTL[Pen]WE[dK]-NH2; disulfide I:1-I:7, II:1-II:7; linker I:10-II:10 via Diglycolyl) |  |  |  | 2.02 |  | < 10 | 100 to 500
